Values quoted from earlier work in PMC11711049 (Cancer Science, 2024).

Assays:
[1] = test system: cholangiocarcinoma; details: first‐line, patients with cholangiocarcinoma; cited from earlier work
[2] = test system: cholangiocarcinoma with an FGFR2 gene fusion or other rearrangement; details: cholangiocarcinoma patients; cited from earlier work

Molecule	ORR [1] [%]	median OS [1] [months]	median PFS [1] [months]	median OS [2] [months]	median PFS [2] [months]	response rate / ORR [2] [%]
gemcitabine and cisplatin	26	11.7	8.0	–	–	–
CCN1C(=O)N(c2c(F)c(OC)cc(OC)c2F)Cc2cnc3[nH]c(CN4CCOCC4)cc3c21 [pemigatinib, Pemigatinib]	–	–	–	21.1	6.9	35.5
